Test results from PubChem BioAssay (NCI).
Where “and” joins values, the source holds several entries; their conditions need not be identical. Identical values can stand only once.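 Five concentrations, 48 hours, 96-well plates. Abbreviation: GI50, concentration required for 50% inhibition of growth. TGI: total growth inhibition.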

Tests used:
Assay in all cases: NCI anticancer screen, dose series, 48 h
OVCAR-5 ovarian = system: OVCAR-5 ovarian
HOP-92 NSCLC = system: HOP-92 NSCLC
HL-60(TB) leukemia = system: HL-60(TB) leukemia
HCT-116 colon = system: HCT-116 colon
COLO 205 colon = system: COLO 205 colon
SF-539 CNS = system: SF-539 CNS
U251 CNS = system: U251 CNS
SK-MEL-28 melanoma = system: SK-MEL-28 melanoma
SR leukemia = system: SR leukemia
BT-549 breast = system: BT-549 breast

| SMILES | GI50 (OVCAR-5 ovarian) | TGI (OVCAR-5 ovarian) | GI50 (HOP-92 NSCLC) | TGI (HOP-92 NSCLC) | GI50 (HL-60(TB) leukemia) | TGI (HL-60(TB) leukemia) | GI50 (HCT-116 colon) | TGI (HCT-116 colon) | GI50 (COLO 205 colon) | TGI (COLO 205 colon) | GI50 (SF-539 CNS) | TGI (SF-539 CNS) | GI50 (U251 CNS) | TGI (U251 CNS) [µM] | GI50 (SK-MEL-28 melanoma) | TGI (SK-MEL-28 melanoma) | GI50 (SR leukemia) | TGI (SR leukemia) [µM] | GI50 (BT-549 breast) | TGI (BT-549 breast) |
| --- | --- | --- | --- | --- | --- | --- | --- | --- | --- | --- | --- | --- | --- | --- | --- | --- | --- | --- | --- | --- |
| COc1ccc(-c2[nH]nc(N)c2-c2cc(OC)c3c(c2)OCO3)cc1 | 16 µM | > 100 µM | 3.54 µM | 46.8 µM | 2.89 µM | 10.3 µM | 2.71 µM | > 100 µM | 4.76 µM | 20 µM | 12.8 µM | 48.2 µM | 4.29 µM | > 100 | 6.3 µM | > 100 µM | 1.97 µM | 18.1 | 7.71 µM | > 100 µM |
| O=C1C=CC(=Nc2cccc3c(N=C4C=CC(=O)O4)cccc23)O1 |  | > 100 µM |  | > 100 µM |  |  |  | 53.1 µM |  | 40.4 µM |  | 36.1 µM |  | > 100 |  | > 100 µM |  | 48.1 |  | > 100 µM |
| Nc1cc(C(F)(F)F)c(-c2cc(N3CCOCC3)nc(N3CCOCC3)n2)cn1 | 0.692 µM and 0.848 µM | 7.16 µM and 8.7 µM | 0.162 µM and 0.0723 µM | 1.17 µM and 0.617 µM | 0.615 µM and 0.455 µM | 5.45 µM and 9.35 µM | 1.21 µM and 1.12 µM | > 10 µM and 9.38 µM | 0.629 µM and 1.25 µM | 2.8 µM and 3.42 µM | 0.976 µM and 1.39 µM | 3.42 µM and 4.35 µM | 1.51 µM and 1.78 µM | > 25 | 0.555 µM and 0.536 µM | 5.14 µM and 4.38 µM | 0.397 µM and 0.41 µM | > 30 | 0.558 µM and 0.727 µM | > 7.16 µM and 6.67 µM |
| NC1=NC(=O)/C(=C/c2ccc3ncccc3c2)S1 | > 25 µM | > 25 µM | > 25 µM | > 25 µM | > 25 µM | > 25 µM | > 13.8 µM | > 25 µM | > 25 µM | > 25 µM | > 25 µM | > 25 µM | > 25 µM | > 25 | > 25 µM | > 25 µM | 7.11 µM | > 25 | > 18.8 µM | > 25 µM |
| Clc1ccc2ncc(-c3cccc(NC4CNC4)n3)n2c1 | 6.45 µM | > 100 µM | 20.5 µM | 67.7 µM | 4.54 µM | 42.2 µM | 3.7 µM | > 100 µM | 2.11 µM | 7.31 µM | 2.92 µM | 17.3 µM | 6.85 µM | 48.7 | 13 µM | > 100 µM | 1.97 µM | > 100 | 10.5 µM | 31.8 µM |
| CC(c1ccccc1)[C@@H](C(=O)Nc1ccc(I)cc1F)N1C(=O)N[C@H](c2ccc(OC[C@H](O)CO)cc2)C1=O (stereo not given in full) | 1.03 µM | > 25 µM | 0.552 µM | 7.03 µM | 0.313 µM | > 25 µM | 1.12 µM | > 25 µM | 0.0368 µM | > 25 µM | 15.5 µM | > 25 µM | 7.86 µM | > 25 | 0.026 µM | > 25 µM | > 20.5 µM | > 25 | 9.17 µM | > 23.7 µM |
| O=C(COc1ccc(OCC(=O)N2C(=O)CN(c3ccccc3)C2=S)cc1)N1C(=O)CN(c2ccccc2)C1=S | > 25 µM | > 100 µM |  | > 100 µM |  | > 100 µM | > 25 µM | > 100 µM | > 25 µM | > 100 µM |  | > 100 µM | > 25 µM | > 100 | > 25 µM | > 100 µM | > 100 µM | > 100 |  | > 100 µM |
